Laboratory results from patent publication US7569567B2, “3-Heteroaryl-3,5-dihydro-4-oxo-4H-pyridazino[4,5-B]indole-1-carboxamide derivatives, their preparation and therapeutic use” (sanofi-aventis, priority 2001, dated 2009).

Row | SMILES | melting point
1 | COc1ccc(-n2nc(C(=O)N(C)C)c3c4ccc(Cl)cc4n(C)c3c2=O)cn1 [Compound 16, 7-chloro-N,N,5-trimethyl-4-oxo-3-(2-methoxypyridin-5-yl)-3,5-dihydro-4H-pyridazino[4,5-b]indole-1-carboxamide] | 236 to 237 °C
2 | CN(C)C(=O)c1nn(-c2ccccn2)c(=O)c2c1c1ccc(F)cc1n2C [Compound 1, 7-fluoro-N,N,5-trimethyl-4-oxo-3-(pyridin-2-yl)-3,5-dihydro-4H-pyridazino[4,5-b]indole-1-carboxamide] | 199 to 200 °C
3 | Cc1cc(-n2nc(C(=O)N3CCCC3)c3c4ccc(Cl)cc4n(C)c3c2=O)ccn1 [Compound 36, 1-[[7-chloro-5-methyl-3-(2-methylpyridin-4-yl)-4-oxo-3,5-dihydro-4H-pyridazino[4,5-b]indol-1-yl]carbonyl]pyrrolidine] | 246 to 247 °C
4 | CN1CCN(C(=O)c2nn(-c3cccnc3)c(=O)c3c2c2ccc(Cl)cc2n3C)CC1.Cl | 267 to 268 °C
5 | COc1cc(-n2nc(C(=O)N(C)C)c3c4ccc(Cl)cc4n(C)c3c2=O)ccn1 [Compound 38, 7-chloro-3-(2-methoxypyridin-4-yl)-N,N,5-trimethyl-4-oxo-3,5-dihydro-4H-pyridazino[4,5-b]indole-1-carboxamide] | 237 to 238 °C
6 | CN(C)C(=O)c1nn(-c2ccc(Br)nc2)c(=O)c2c1c1ccc(Cl)cc1n2C [Compound 18, 7-chloro-N,N,5-trimethyl-4-oxo-3-(2-bromopyridin-5-yl)-3,5-dihydro-4H-pyridazino[4,5-b]indole-1-carboxamide] | 250 to 252 °C
7 | CN1CCN(C(=O)c2nn(-c3cccnc3)c(=O)c3c2c2ccc(F)cc2n3C)CC1.Cl | 269 to 273 °C
8 | CN(C)C(=O)c1nn(-c2cnc3ccccc3c2)c(=O)c2c1c1ccc(F)cc1n2C [Compound 5, 7-fluoro-N,N,5-trimethyl-4-oxo-3-(quinolin-3-yl)-3,5-dihydro-4H-pyridazino[4,5-b]indole-1-carboxamide] | 237 to 238 °C
9 | Cn1c2cc(F)ccc2c2c(C(=O)N3CCCC3)nn(-c3ncccn3)c(=O)c21 [Compound 6, 1-[[7-fluoro-5-methyl-3-(pyrimidin-2-yl)-4-oxo-3,5-dihydro-4H-pyridazino[4,5-b]indol-1-yl]carbonyl]-pyrrolidine] | 238 to 239 °C
10 | CN(C)C(=O)c1nn(-c2cncnc2)c(=O)c2c1c1ccc(Cl)cc1n2C [Compound 22, 7-chloro-N,N,5-trimethyl-4-oxo-3-(pyrimidin-5-yl)-3,5-dihydro-4H-pyridazino[4,5-b]indole-1-carboxamide] | 251 to 252 °C
11 | CN(C)C(=O)c1nn(-c2cnccn2)c(=O)c2c1c1ccc(Cl)cc1n2C [Compound 24, 7-chloro-N,N,5-trimethyl-4-oxo-3-(pyrazin-2-yl)-3,5-dihydro-4H-pyridazino[4,5-b]indole-1-carboxamide] | 231 to 232 °C
12 | Cc1ccc(-n2nc(C(=O)N(C)C)c3c4ccc(Cl)cc4n(C)c3c2=O)nn1 [Compound 21, 7-chloro-N,N,5-trimethyl-4-oxo-3-(6-methyl-pyridazin-3-yl)-3,5-dihydro-4H-pyridazino[4,5-b]indole-1-carboxamide] | 238 to 239 °C
13 | CN(C)C(=O)c1nn(-c2cnc3ccccc3c2)c(=O)c2c1c1ccc(Cl)cc1n2C [Compound 19, 7-chloro-N,N,5-trimethyl-4-oxo-3-(quinolin-3-yl)-3,5-dihydro-4H-pyridazino[4,5-b]indole-1-carboxamide] | 271 to 272 °C
14 | Cn1c2cc(F)ccc2c2c(C(=O)N3CCCC3)nn(-c3cccnc3)c(=O)c21 [Compound 8, 1-[[7-fluoro-5-methyl-3-(pyridin-3-yl)-4-oxo-3,5-dihydro-4H-pyridazino[4,5-b]indol-1-yl]carbonyl]-pyrrolidine] | 220 to 221 °C
15 | Cn1c2cc(Cl)ccc2c2c(C(=O)N3CCCC3)nn(-c3ccncc3)c(=O)c21 [Compound 27, 1-[[7-chloro-5-methyl-3-(pyridin-4-yl)-4-oxo-3,5-dihydro-4H-pyridazino[4,5-b]indol-1-yl]carbonyl]-pyrrolidine] | 236 to 237 °C
16 | Cc1ccc(-n2nc(C(=O)N(C)C)c3c4ccc(Cl)cc4n(C)c3c2=O)nc1 [Compound 15, 7-chloro-N,N,5-trimethyl-4-oxo-3-(5-methylpyridin-2-yl)-3,5-dihydro-4H-pyridazino[4,5-b]indole-1-carboxamide] | 222 to 224 °C
17 | Cc1cc(-n2nc(C(=O)N(C)C)c3c4ccc(Cl)cc4n(C)c3c2=O)ccn1 [Compound 35, 7-chloro-N,N,5-trimethyl-4-oxo-3-(2-methylpyridin-4-yl)-3,5-dihydro-4H-pyridazino[4,5-b]indole-1-carboxamide] | 267 to 269 °C
18 | CN(C)C(=O)c1nn(-c2cc[n+]([O-])cc2)c(=O)c2c1c1ccc(Cl)cc1n2C [Compound 37, 7-chloro-N,N,5-trimethyl-3-(1-oxidopyridin-4-yl)-4-oxo-3,5-dihydro-4H-pyridazino[4,5-b]indole-1-carboxamide] | 301 to 304 °C

Row | SMILES | melting point
19 | CN(C)C(=O)c1nn(-c2ncccn2)c(=O)c2c1c1ccc(Cl)cc1n2C [Compound 23, 7-chloro-N,N,5-trimethyl-4-oxo-3-(pyrimidin-2-yl)-3,5-dihydro-4H-pyridazino[4,5-b]indole-1-carboxamide] | 272 to 274 °C
20 | CN(C)C(=O)c1nn(-c2ccncc2)c(=O)c2c1c1ccc(F)cc1n2C.Cl | 266 to 271 °C
21 | Cn1c2cc(Cl)ccc2c2c(C(N)=O)nn(-c3ccncc3)c(=O)c21 [Compound 29, 7-chloro-5-methyl-4-oxo-3-(pyridin-4-yl)-3,5-dihydro-4H-pyridazino[4,5-b]indole-1-carboxamide] | 341 to 346 °C
22 | Cn1c2cc(F)ccc2c2c(C(N)=O)nn(-c3cccnc3)c(=O)c21 [Compound 10, 7-fluoro-5-methyl-4-oxo-3-(pyridin-3-yl)-3,5-dihydro-4H-pyridazino[4,5-b]indole-1-carboxamide] | 319 to 320 °C
23 | COc1ccnc(-n2nc(C(=O)N(C)C)c3c4ccc(Cl)cc4n(C)c3c2=O)c1 [Compound 30, 7-chloro-N,N,5-trimethyl-4-oxo-3-(4-methoxypyridin-2-yl)-3,5-dihydro-4H-pyridazino[4,5-b]indole-1-carboxamide] | 243 to 244 °C
24 | CN(C)C(=O)c1nn(-c2ccccn2)c(=O)c2c1c1ccc(Cl)cc1n2C [Compound 11, 7-chloro-N,N,5-trimethyl-4-oxo-3-(pyridin-2-yl)-3,5-dihydro-4H-pyridazino[4,5-b]indole-1-carboxamide] | 210 to 211 °C
25 | CN(C)C(=O)c1nn(-c2cccnc2)c(=O)c2c1c1ccc(F)cc1n2C [Compound 2, 7-fluoro-N,N,5-trimethyl-4-oxo-3-(pyridin-3-yl)-3,5-dihydro-4H-pyridazino[4,5-b]indole-1-carboxamide] | 220 to 221 °C
26 | CCN(C)C(=O)c1nn(-c2ccncc2)c(=O)c2c1c1ccc(Cl)cc1n2C [Compound 33, 7-chloro-N-ethyl-N,5-dimethyl-4-oxo-3-(pyridin-4-yl)-3,5-dihydro-4H-pyridazino[4,5-b]indole-1-carboxamide] | 211 to 213 °C
27 | COc1ccc(-n2nc(C(=O)N(C)C)c3c4ccc(F)cc4n(C)c3c2=O)cn1 [Compound 4, 7-fluoro-N,N,5-trimethyl-4-oxo-3-(2-methoxypyridin-5-yl)-3,5-dihydro-4H-pyridazino[4,5-b]indole-1-carboxamide] | 225 to 226 °C
28 | CN(C)C(=O)c1nn(-c2ccncc2)c(=O)c2c1c1ccc(Cl)cc1n2C [Compound 13, 7-chloro-N,N,5-trimethyl-4-oxo-3-(pyridin-4-yl)-3,5-dihydro-4H-pyridazino[4,5-b]indole-1-carboxamide] | 276 to 278 °C
29 | CNC(=O)c1nn(-c2cccnc2)c(=O)c2c1c1ccc(F)cc1n2C [Compound 9, 7-fluoro-N,5-dimethyl-4-oxo-3-(pyridin-3-yl)-3,5-dihydro-4H-pyridazino[4,5-b]indole-1-carboxamide] | 270 to 272 °C
30 | CN(C)C(=O)c1nn(-c2cccnc2)c(=O)c2c1c1ccc(Cl)cc1n2C.Cl | 228 to 230 °C
31 | CNC(=O)c1nn(-c2ccncc2)c(=O)c2c1c1ccc(Cl)cc1n2C [Compound 28, 7-chloro-N,5-dimethyl-4-oxo-3-(pyridin-4-yl)-3,5-dihydro-4H-pyridazino[4,5-b]indole-1-carboxamide] | 321 to 323 °C
32 | Cc1ccc(-n2nc(C(=O)N(C)C)c3c4ccc(Cl)cc4n(C)c3c2=O)cn1 [Compound 17, 7-chloro-N,N,5-trimethyl-4-oxo-3-(2-methylpyridin-5-yl)-3,5-dihydro-4H-pyridazino[4,5-b]indole-1-carboxamide] | 214 to 216 °C
33 | CN(C)C(=O)c1nn(-c2cncc3ccccc23)c(=O)c2c1c1ccc(Cl)cc1n2C [Compound 20, 7-chloro-N,N,5-trimethyl-4-oxo-3-(isoquinolin-4-yl)-3,5-dihydro-4H-pyridazino[4,5-b]indole-1-carboxamide] | 189 to 191 °C
34 | Cl.Cn1c2cc(Cl)ccc2c2c(C(=O)N3CCCC3)nn(-c3cccnc3)c(=O)c21 | 232 to 234 °C
35 | CN(C)C(=O)c1nn(-c2ccncc2)c(=O)c2c1c1ccc(Cl)cc1n2C.Cl | 263 to 265 °C
36 | Cn1c2cc(Cl)ccc2c2c(C(=O)N3CCCCC3)nn(-c3ccncc3)c(=O)c21 [Compound 34, 1-[[7-chloro-5-methyl-3-(pyridin-4-yl)-4-oxo-3,5-dihydro-4H-pyridazino[4,5-b]indol-1-yl]carbonyl]-piperidine] | 242 to 243 °C
